One molecule from paper PMC6060094, “Structural determinants of the catalytic mechanism of Plasmodium CCT, a key enzyme of malaria lipid biosynthesis” (Scientific Reports, 2018) can be followed below.

For experiment [1], the target named is PfCCT(528–795) Y626F/Q636A (Plasmodium falciparum, UniProt Q8IEE9, DEL720-737/Q636A/Y626F). Put plainly: Continuous coupled colorimetric enzyme activity assay (PPase/PNP/MESG). In kind it is biochemical. The conditions noted are these: CTP varied 100 μM–2 mM, ChoP fixed 5 mM; read-out: KM,CTP. Here is the method:
(§1) Enzyme activity measurements were performed as described previously, using a continuous coupled colorimetric assay with pyrophosphatase (PPase), purine nucleoside phosphorylase (PNP) auxiliary enzymes and the auxiliary substrate 7-methyl-6-thioguanosine (MESG)[16],[30],[39]. For CTP substrate titrations, CTP concentration was varied between 100 μM and 2 mM while ChoP concentration was kept constant at 5 mM. For ChoP titrations, ChoP concentration was varied between 0.5 mM and 20 mM while CTP concentration was kept constant at 1 mM. Initial velocities were calculated from the first 10% of the progress curves using phosphate calibration as reference. Due to the low activity of PfCCT(581–775) and PfCCT(528–795) T761A, T762A variants, the enzyme was used at 10 μM concentration and the slope of the absorbance change was determined after monitoring the reaction for 20 minutes. For measurements with PfCCT(528–795) K663A the following reagent concentrations were used in the enzyme assay: [PPase] = 0.17 U·ml^−1, [PNP] = 1.25 U·ml^−1, [MESG] = 0.1 mM, [Mg^2+] = 5 mM and [PfCCT(528–795) K663A] = 10 μM, to yield adequate signal-to-noise ratio (S/N > 10). Three independent experiments were performed for CTP and ChoP kinetic titrations of PfCCT(528–795) K663A. Global fit of CTP and ChoP kinetic titrations for each enzyme variant was performed in Origin 8.6 using Michaelis–Menten equation, to yield a single kcat parameter.

The target in the next experiment is T1, PfCCT(581–775) (Plasmodium falciparum, UniProt P49587, DEL194-211).
T1 construct: The PfCCT(581–775) construct was obtained using previously described PfCCT(528–795); 6xHis (TEV-cleavable) (N, cleaved yes); made in house; host or cells: E. coli BL21 (DE3)
The experiment is described as above. In kind it is biochemical. The following applies: CTP varied 100 μM–2 mM, ChoP fixed 5 mM. Here is the method: as §1

The next experiment addresses PfCCT(528–795) T761A. The experiment in a line: Equilibrium ligand binding by isothermal titration calorimetry (ITC). Further details: species or system Plasmodium falciparum. The conditions noted are these: 20 °C, pH 7.5, read-out: Kd,CTP. Here is the method:
(§2) Calorimetric measurements were performed on an ITC 200 titration calorimeter (Malvern) at 20 °C. The protein samples were dialyzed against 20 mM HEPES/NaOH pH 7.5, 100 mM NaCl, including 0.5 mM Tris(2-carboxyethyl)phosphine (TCEP) as reducing agent. CTP and CDPCho were diluted from a concentrated stock into the dialysis buffer with subsequent pH adjustment. Concentration of the titrating nucleotide ligands were determined using molar extinction coefficients 9000 M^−1 cm^−1 at 271 nm for CTP and 5000 M^−1 cm^−1 at 260 nm for CDPCho[16]. In the experimental setup, the cell of the instrument was filled with protein and the syringe with the ligand. The titrations typically included 19 steps of injection with 2 μl of ligand per injection spaced 180 s apart from each other, with the injection syringe rotating at 750 r.p.m. The data were analyzed using MICROCAL ORIGIN software following the directions of the manufacturer. To account for dilution, the invariant integrated heat value of the last 3–5 data points was subtracted from all data points. The one set of independent sites binding model was applied to data for determination of thermodynamic parameters: dissociation constant (Kd), stoichiometry (N), enthalpy (ΔH) and entropy (ΔS). […]
(Isothermal titration calorimetry measures the heat released or taken up as one component is titrated into another.)

The next experiment deals with PfCCT(528–795) T762A. The description is as above. Also noted: species or system Plasmodium falciparum. The following applies: 20 °C, pH 7.5, read-out: Kd,CTP. The method, then:
as §2

Sequence of PfCCT(528–795) Y626F/Q636A (Q8IEE9 528-795, stated change not applied): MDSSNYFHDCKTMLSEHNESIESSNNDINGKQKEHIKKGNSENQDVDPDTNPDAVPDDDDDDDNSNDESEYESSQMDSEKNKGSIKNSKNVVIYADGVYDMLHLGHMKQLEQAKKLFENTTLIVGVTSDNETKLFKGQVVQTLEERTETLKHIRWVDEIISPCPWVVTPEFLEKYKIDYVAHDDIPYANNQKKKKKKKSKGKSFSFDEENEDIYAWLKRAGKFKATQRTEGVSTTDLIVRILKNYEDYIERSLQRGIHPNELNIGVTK

Usually Km stands for the substrate concentration at which the rate is half of its maximum. For orientation: Kd means a measure of binding affinity in units of concentration. For the molecule `Nc1ccn([C@@H]2O[C@H](COP(=O)(O)OP(=O)(O)OP(=O)(O)O)[C@@H](O)[C@H]2O)c(=O)n1` [CTP], the results for the Michaelis-Menten constant (Km) (in experiment [1]; at PfCCT(581–775)) were 170 ± 10 µM and 1.1 mM, respectively. Besides, the figures for the Kd on PfCCT(528–795) T761A and on PfCCT(528–795) T762A were 170 ± 35 µM and 170 ± 12 µM, respectively.
